This note sets out measurements from patent US12168654B2, “Pyrimidine derivative containing one deuterium atom and preparation process and use thereof” (Guangdong Lewwin Pharmaceutical Research Institute Co., Ltd., priority 2018, dated 2024).

Structures are written as SMILES. Where two headings read alike, the source gives them in different places.

By Cmax is commonly meant the maximum level reached in the sampled fluid or tissue. Usually Tmax stands for the time at which the peak concentration occurs.

The test system of series [1] is human highly metastatic hepatoma cells MHCC-97H. Briefly: MTT anti-tumor cell proliferation test. It is filed as cell-based. As to conditions: for IC50: Homo sapiens, MHCC97H, MTT. How it is done: The novel pyrimidine derivatives of the invention were tested on their anti-tumor activities. Human highly metastatic hepatoma cells MHCC-97H were employed in the MTT process to evaluate the anti-tumor cell proliferation activities. The specific operation steps were as below: tumor cells were inoculated in a 96-well plate by a certain number of cells, at a cell density of 5×10^3-10×10^3/well. They were incubated in an incubator at 37° C. and a carbon dioxide concentration of 5% overnight, into which was then added the compound samples to be tested. After incubation for 72 hours, MTT was added to keep on for 4 hours, and dissolved with the addition of DMSO with shaking, and then detected with a microplate reader (570 nm).
(1) The anti-tumor cell activities of (R)-1D228 are tested. With Tepotinib and (R)-4D288 as the control, human highly metastatic hepatoma cell MHCC-97Hwas selected to evaluate the antitumor cell proliferative activities through the MTT process. The specific operation steps were as below: the tumor cells were inoculated in a 96-well culture plate following a certain number of cells, the cell density was 5×103-10×10^3/well. After cultivation in an incubator at 37° C. and at a CO2 concentration of 5% overnight, the compound samples to test were added. After cultivation for 72 hours, MTT was added to continue the cultivation for 4 hours. DMSO was then added to dissolve with stirring, and detected with a microplate reader (570 nm).

The test system of the next series is tumor in naked mice. Briefly: Anti-tumor test in naked mice. It is filed as in vivo. As to conditions: once a day for 2 weeks.
Another series in a line: in vitro. As to conditions: for half-life: microsomes. How it is done: Firstly, a SD rat (200-300 g) was fasted for 12 hours, and then infused rapidly with normal saline. Liver was taken out from the rat, from which liver microsomes were extracted at 0-4° C., ready for use after calibrating the concentration of liver microsomes. At 37° C., liver microsomes were incubated in combination with a certain concentration of compounds and auxiliary reagents for a period of time. The reaction was then quenched with acetonitrile.

Series [2] in a line: Pharmacokinetic properties in mice (IV and PO). As to conditions: in vivo; for AUC(0-inf) / clearance / half-life / bioavailability: Sprague-Dawley (SD); for Vd / Cmax / Tmax: Sprague-Dawley.
Series [3] can be described thus: Body weights of animals during administration. The format is in vivo, naked mice. Particulars: 8 mg/kg, in g (unit assumed). The source says:
The body weights of animals in each group during administration are shown in FIG. 9 and Table 7, showing that there were no significant changes in the body weights of mice and there were not abnormal behaviors of mice during administration.

Setting [4] is: incubation 72 hours, Table 1, read-out: Human highly metastatic hepatoma cell MHCC-97H (μM), median inhibitory concentration IC50.
[5] abbreviates: cultivation 72 hours, Table 4, read-out: Human highly metastatic hepatoma cell MHCC-97H (μM), inhibitory activity.

In the case of `CC(c1cccc(-c2ncc(OCC3CCN(C)CC3)cn2)c1)n1nc(-c2cccc(C#N)c2)ccc1=O` (racemic) [(±)-5b], the IC50 in series [1] (setting [4]) is 0.0353 µM.
For `[2H][C@@](C)(c1cccc(-c2ncc(OCC3CCN(C)CC3)cn2)c1)n1nc(-c2cccc(C#N)c2)ccc1=O` [(R)-1D228], in the series with tumor in naked mice (4 mg/kg intragastric), the “Relative tumor proliferation rate T/C (%)” value came to 1.78%, the “Tumor inhibition rate (%)” value is reported as 98.3% and the Tumor weights amounted to 0.011 ± 0.006. Further, in the series with tumor in naked mice (8 mg/kg intragastric), the “Relative tumor proliferation rate T/C (%)” value came out at 1.17%, the “Tumor inhibition rate (%)” value worked out at 98.6% and the Tumor weights came to 0.009 ± 0.007.
`C[C@H](c1cccc(-c2ncc(OCC3CCN(C)CC3)cn2)c1)n1nc(-c2cccc(C#N)c2)ccc1=O` [(R)-5b]: in “in vitro” (SD, rat), the K worked out at 0.0259 min⁻¹ and the half-life was 0.447 h. Further, in series [2] (iv, 2 mg/kg), the AUC(0-inf) came to 2140 ng·h/mL, the clearance was 15.5 mL/min/kg, the half-life is 4.23 h and the Vd came out at 5.69 L/kg. Also, in series [2] (po, 5 mg/kg), the AUC(0-inf) was 4580 ng·h/mL, the bioavailability was determined as 86%, the highest concentration (Cmax) was found to be 495 ng/mL and the Tmax was 2 h. In addition, the IC50 in series [1] (setting [4]) worked out at 0.0037 µM. Besides, the “activity for inhibiting tumor cells, times that of (S)-5b” value in series [1] (MHCC-97H, relative to (S)-5b) was 31.9 times. Further, the “activity for inhibiting tumor cells, times that of (±)-5b” value in series [1] (MHCC-97H, relative to (±)-5b) is on record as 9.5 times.
Take `[2H]C([2H])([2H])[C@]([2H])(c1cccc(-c2ncc(OCC3CCN(C)CC3)cn2)c1)n1nc(-c2cccc(C#N)c2)ccc1=O` [(R)-14]: in the series “in vitro” (SD, rat), the K is 0.0198 min⁻¹ and the half-life turned out to be 0.583 h. Moreover, in the series on tumor in naked mice (4 mg/kg intragastric), the “Relative tumor proliferation rate T/C (%)” value is 2.28%, the “Tumor inhibition rate (%)” value is 98.0% and the Tumor weights was 0.013 ± 0.015. Also, in the series on tumor in naked mice (8 mg/kg intragastric), the “Relative tumor proliferation rate T/C (%)” value came out at 1.59%, the “Tumor inhibition rate (%)” value is listed as 98.2% and the Tumor weights was 0.012 ± 0.006. In addition, in series [2] (iv, 2 mg/kg), the AUC(0-inf) worked out at 2440 ng·h/mL, the clearance is 13.7 mL/min/kg, the half-life was 4.48 h and the Vd stood at 5.29 L/kg. In series [2] (po, 5 mg/kg), the AUC(0-inf) stood at 6310 ng·h/mL, the bioavailability was determined as 104%, the Cmax was determined as 614 ng/mL and the Tmax worked out at 4 h.
With `C[C@@H](c1cccc(-c2ncc(OCC3CCN(C)CC3)cn2)c1)n1nc(-c2cccc(C#N)c2)ccc1=O` [(S)-5b], the IC50 in series [1] (setting [4]) worked out at 0.118 µM.
As to `CC(c1cccc(-c2ncc(OCCCN(C)C)cn2)c1)n1nc(-c2cccc(C#N)c2)ccc1=O` (centres unmarked) [Compound 1], in series [1] (setting [4]), the IC50 was 0.0476 µM.
Turning to `[2H][C@@](C)(c1cccc(-c2ncc(OCC3CCN(C)CC3)cn2)c1)n1nc(-c2cccc(C#N)c2)ccc1=O` [Compound 1], the IC50 in series [1] (setting [5]) worked out at 0.0033 µM.
In the case of `C[C@H](c1cccc(-c2ncc(OCCCN(C)C)cn2)c1)n1nc(-c2cccc(C#N)c2)ccc1=O` [Compound 2], in series [1] (setting [4]), the IC50 came to 0.014 µM.
For `[2H]C([2H])([2H])[C@]([2H])(c1cccc(-c2ncc(OCC3CCN(C)CC3)cn2)c1)n1nc(-c2cccc(C#N)c2)ccc1=O` [Compound 2], the IC50 in series [1] (setting [5]) was 0.0037 µM.
Regarding `CN1CCC(COc2cnc(-c3cccc(Cn4nc(-c5cccc(C#N)c5)ccc4=O)c3)nc2)CC1` [Compound 3], in series [1] (setting [5]), the IC50 worked out at 0.0134 µM.
On to `C[C@@H](c1cccc(-c2ncc(OCCCN(C)C)cn2)c1)n1nc(-c2cccc(C#N)c2)ccc1=O` [Compound 3], for which the IC50 in series [1] (setting [4]) was determined as 1.04 µM.
As for `CC(c1cccc(-c2ncc(OCC3CCN(C)CC3)cn2)c1)n1nc(-c2cccc(C#N)c2)ccc1=O` (centres unmarked) [Compound 4], the IC50 in series [1] (setting [4]) was determined as 0.0353 µM.
Regarding `CC(c1cccc(-c2ncc(SCCCN(C)C)cn2)c1)n1nc(-c2cccc(C#N)c2)ccc1=O` (centres unmarked) [Compound 7], the IC50 in series [1] (setting [4]) turned out to be 0.0272 µM.
For `C[C@H](c1cccc(-c2ncc(SCCCN(C)C)cn2)c1)n1nc(-c2cccc(C#N)c2)ccc1=O` [Compound 8], the IC50 in series [1] (setting [4]) came to 0.0139 µM.
On to `C[C@@H](c1cccc(-c2ncc(SCCCN(C)C)cn2)c1)n1nc(-c2cccc(C#N)c2)ccc1=O` [Compound 9], for which, in series [1] (setting [4]), the IC50 was 0.189 µM.
For the compound `CC(c1cccc(-c2ncc([Se]CCCN(C)C)cn2)c1)n1nc(-c2cccc(C#N)c2)ccc1=O` (centres unmarked) [Compound 10], the IC50 in series [1] (setting [4]) turned out to be 0.027 µM.
In the case of `C[C@H](c1cccc(-c2ncc([Se]CCCN(C)C)cn2)c1)n1nc(-c2cccc(C#N)c2)ccc1=O` [Compound 11], the IC50 in series [1] (setting [4]) turned out to be 0.0117 µM.
Turning to `C[C@@H](c1cccc(-c2ncc([Se]CCCN(C)C)cn2)c1)n1nc(-c2cccc(C#N)c2)ccc1=O` [Compound 12], in series [1] (setting [4]), the IC50 is 0.415 µM.
Consider `[2H]C([2H])([2H])[C@H](c1cccc(-c2ncc(OCC3CCN(C)CC3)cn2)c1)n1nc(-c2cccc(C#N)c2)ccc1=O` [Compound 13], for which the IC50 in series [1] (setting [4]) came out at 0.0035 µM.
The same measure, in the same setting: for `[2H]C([2H])([2H])[C@]([2H])(c1cccc(-c2ncc(OCC3CCN(C)CC3)cn2)c1)n1nc(-c2cccc(C#N)c2)ccc1=O` [Compound 14] the value was 0.0037 µM; for `[2H]C([2H])([2H])[C@@]([2H])(c1cccc(-c2ncc(OCC3CCN(C)CC3)cn2)c1)n1nc(-c2cccc(C#N)c2)ccc1=O` [Compound 15], 1.12 µM; for `CN1CCC(COc2cnc(-c3cccc(Cn4nc(-c5cccc(C#N)c5)ccc4=O)c3)nc2)CC1` [Compound 16], 0.0134 µM.
Regarding `CN1CCC(COc2cnc(-c3cccc(Cn4nc(-c5cccc(C#N)c5)ccc4=O)c3)nc2)CC1` [Tepotinib, reference compound], the half-life in the series “in vitro” (SD, rat) was determined as 0.345 h. In “in vitro” (rat liver microsomes, 37° C.), the K was determined as 0.0134 min⁻¹. Moreover, the “body weights D 0” value in series [3] (D 0) was found to be 24.9 ± 1.0. Further, the “body weights D 3” value in series [3] (D 3) turned out to be 25.1 ± 1.1. In series [3] (D 6), the “body weights D 6” value was found to be 25.3 ± 1.0. For the same compound, the “body weights D 9” value in series [3] (D 9) is on record as 25.2 ± 1.1. In addition, the “body weights D 12” value in series [3] (D 12) worked out at 25.3 ± 1.0. In addition, the “body weights D 14” value in series [3] (D 14) was determined as 25.1 ± 1.0. In the series with tumor in naked mice (8 mg/kg intragastric), the “Relative tumor proliferation rate T/C (%)” value turned out to be 4.9%, the “Tumor inhibition rate (%)” value stood at 93.8% and the Tumor weights was determined as 0.041 ± 0.021. Further, in series [2] (mouse, IV 2 mg/kg, read-out: AUC0-∞), the AUC(0-inf) was 563 ng·h/mL. Besides, the clearance in series [2] (mouse, IV 2 mg/kg, read-out: CL (converted)) was 59.2 mL/min/kg. In addition, the half-life in series [2] (mouse, IV 2 mg/kg, read-out: T1/2 (converted)) was 1.79 h. Further, the bioavailability in series [2] (mouse, PO 5 mg/kg vs IV 2 mg/kg, read-out: F % (bioavailability)) stood at 67.8%. For the same compound, in series [2] (mouse, PO 5 mg/kg, read-out: AUC0-∞), the AUC(0-inf) amounted to 982 ng·h/mL. Also, the Vd in series [2] (mouse, IV 2 mg/kg, read-out: Vz) came to 9.18 L/kg. The Cmax in series [2] (mouse, PO 5 mg/kg, read-out: Cmax) is 211 ng/mL. For the same compound, the Tmax in series [2] (mouse, PO 5 mg/kg, read-out: Tmax) was determined as 1 h.
On to `C[C@]12CC[C@H]3[C@@H](CCC4=CC(=O)CC[C@@]43C)[C@@H]1CC[C@@H]2O` [testosterone, reference compound], for which the “T1/2 (metabolic half-life in liver microsomes)” value in “in vitro” (rat liver microsomes, 37° C.) stood at 2.3 min.
